Tested on: OCI-AML3
Assay: Cell proliferation inhibition (CellTiter-Glo), OCI-AML3 (NPM1 mutation)
Format: cell-based
Conditions: Homo sapiens, OCI-AML-3, 168 h, OCI-AML3 cells
Procedure: (§1) Test Example 2: Test of the Inhibitory Ability of Menin-MLL Interaction Inhibitors on Cell Proliferation
(§2) The inhibitory ability of the compounds of the present disclosure on the proliferation of tumor cell lines (including cell lines containing MLL fusion protein such as MV4-11, MOLM-13, THP-1 and NOMO-1, control cell lines without MLL fusion protein such as HL-60, K562 and MOLM-16, and cell lines containing NPM1 mutation such as OCI-AML3) was evaluated by using the cell viability analysis method. The cells were plated in 96-well plates at a certain concentration (e.g., 5,000-20,000 cells/well), and then an equal volume of culture medium containing 2 times the final concentration of the test compound (the final concentration ranging 10 from 1 nM to 10 μM) was added. The plates were placed in an incubator and cultured at 37° C. and 5% CO2 for 72-168 h. Before the test, an equal volume of CellTiter-Glo® Luminescent reagent was added, and the plate was incubated at room temperature for 10 min before detection using an ELISA reader (BMG LABTECH). The data were analyzed using GraphPad Prism software to obtain the IC50 value and compound fitting curve. The control compound 1 was prepared by referring to the method of Example 64 in WO2017214367.
Compound CCN(C(=O)c1cc(F)ccc1Oc1nncnc1N1CC2(CCN(CC3CCC4(CC3)CN(C)C(=O)N4)CC2)C1)C(C)C (single isomer, unassigned) [Example 46-1] has a GI50 of 140 nM. In the case of CCN(C(=O)c1cc(F)ccc1Oc1nncnc1N1CC2(CCN(C[C@H]3CC[C@]4(CC3)CC(C(C)(C)O)C(=O)N4)CC2)C1)C(C)C (single isomer, unassigned) [Example 58-1a], the GI50 is reported as 22.9 nM. Work on COCC1(COC)C[C@]2(CC[C@@H](CN3CCC4(CC3)CN(c3ncncc3Oc3ccc(F)cc3C(=O)N(C(C)C)C(C)C)C4)CC2)NC1=O [Example 18] yielded a GI50 of 21.2 nM.

Tested on: not listed separately
Assay: Stability in mouse liver microsomes
Format: in vitro ADME
Conditions: liver microsomes, pH 7.4, 0.5 mg/mL microsomal protein, 1.00 μM compound, NADPH, read-out: Half life T1/2, mouse liver microsomes
Procedure: (§3) Test Example 3: Test of Stability of Compounds in Liver Microsome
(§4) Test purpose: To determine the stability of some of the compounds of the present disclosure in mouse, dog and human liver microsomes by LC-MS/MS method.
(§5) Test materials: The test drugs were in-house prepared example compounds of the present disclosure; the positive reference compound SNDX-5613 was prepared by the method of Example 253 in patent WO2017214367; the control compound 1 was prepared by the method of Example 64 in WO2017214367; liver microsomes were purchased from CORNING.
(§6) The total volume of each incubation system was approximately 45 μL, and the medium was 100 mM phosphate buffer (PBS, pH 7.4), including liver microsomal protein at a final concentration of 0.5 mg/mL, 1.00 μM compound and 2.00 mM NADPH, and the organic phase content was <1%. Incubation was performed in a 37° C. incubator, and 135 μL of ice-cold acetonitrile was added after 0, 5, 15, 30 and 60 min of reaction to terminate the reaction. The positive control group was incubated with 1.00 μM Ketanserin, 0.5 mg/mL liver microsomal protein and 2.00 mM NADPH in a 37° C. incubator for 0, 5, 15, 30 and 60 min respectively, and then 135 μL of ice-cold acetonitrile was added to terminate the reaction. The 96-well plates were shaken at 600 rpm for 10 min and then centrifuged at 4700 rpm at 4° C. for 15 min. 80 μL of supernatant was mixed with 320 μL of pure water, and the remaining amount of the compound was detected by LC-MS/MS method. The in vitro half life (T½) and intrinsic clearance (CLint) were calculated according to the following formula:
(§7) Intrinsic clearance (Clint)=(0.693/T1/2)×(1/liver microsome concentration)×conversion factor. k is the linear regression slope of the remaining percentage of the ln compound-incubation time.
With CCN(C(=O)c1cc(F)ccc1Oc1nncnc1N1CC2(CCN(CC3CCC4(CC3)CN(C)C(=O)N4)CC2)C1)C(C)C (single isomer, unassigned) [Example 46-1] the half-life at 1 μM was greater than 120 min. CCN(C(=O)c1cc(F)ccc1Oc1nncnc1N1CC2(CCN(C[C@H]3CC[C@]4(CC3)CC(C(C)(C)O)C(=O)N4)CC2)C1)C(C)C (single isomer, unassigned) [Example 58-1a] gave a half-life at 1 μM greater than 120 min.

Tested on: not listed separately
Assay: Pharmacokinetics test in mouse
Format: in vivo, ICR mice
Conditions: male, ICR, mouse, plasma, po, 10 mg/kg, mice, p.o. 10 mg/kg
Description: Test Example 4. In Vivo Pharmacokinetic Study
Test purpose: To determine the pharmacokinetic properties of some of the example compounds of the present disclosure in mice, rats and dogs after single intravenous injection (i.v.) and oral gavage (i.g.) administration by LC-MS/MS method.
Research methods: An appropriate amount of compound was weighed and prepared into a transparent clear solution of a certain concentration using 0.9% sodium chloride injection and 1.5 equivalents of 1M HCl aqueous solution based on the molar number of the compound. After SPF male ICR mice, SPF male SD rats, and male beagle dogs were fasted overnight, the test compound solution was given by intravenous injection and oral gavage at the corresponding dose. Anticoagulated whole blood of the test animals was collected at 5 min, 15 min, 30 min, 1 h, 2 h, 4 h, 8 h, and 24 h after administration, and plasma was separated. Plasma samples at each time point were detected by LC-MS/MS, and the plasma concentration of the compound was determined by the standard curve correction method. Phoenix WinNonlin 5.2 non-compartmental model was used to calculate the pharmacokinetic parameters of terminal elimination half-life (t½), blood peak concentration (Cmax), area under the concentration-time curve (AUC), clearance (CL), and bioavailability (F %), which was directly obtained from the serum concentration results. Blood drug concentration and pharmacokinetic parameters are expressed as mean±standard deviation (X±SD). The specific test protocols for each species are as follows.
Pharmacokinetics Test in Mouse
Test animals: SPF male ICR mice, weighing 25-30 g, 12 mice/compound, purchased from Chengdu Dossy Experimental Animal Co., Ltd.
Test design: On the day of the test, ICR mice were randomly divided into groups according to body weight, fasted but with free water for 12-14 h one day before administration, and fed 2 h after administration.
Preparation of test compound solution: The concentration of the test compound for oral gavage was 1 mg/mL. An appropriate amount of compound was weighed and prepared into a 1 mg/mL transparent clear solution using 0.9% sodium chloride injection and 1.5 equivalents of 1M HCl aqueous solution. The concentration of the test compound for intravenous injection was 0.2 mg/mL. The 1 mg/mL transparent clear solution was diluted to a concentration of 0.2 mg/mL using 0.9% sodium chloride injection. The volume of 1 M HCl solution added was calculated as: volume of 1 M HCl solution added […]=weighed amount of compound (mg)/molecular weight×1.5×1000. The amount added during preparation must not exceed the calculated value.
The test substance was administered as follows: intravenous injection: 1 mg/kg of dose, 5 mL/kg of volume, 6 mice; oral gavage: 10 mg/kg of dose, 10 mL/kg of volume, 6 mice.
Sample collection: Blood (40-50 μl) was collected in anticoagulant tubes sprayed with EDTA-K2 through the orbital venous plexus at 5 min, 15 min, 30 min, 1 h, 2 h, 4 h, 8 h, and 24 h after administration, and centrifuged at 10,000 rpm for 20 min within 1 h (the blood was saved on wet ice before and after centrifugation). The supernatant, which was plasma, was collected and frozen in a refrigerator at −20° C. or below for LC-MS/MS analysis of Full PK of male ICR mice (2 mice per group, 4 blood collection time points per mouse, crossover).
With COCC1(COC)C[C@]2(CC[C@@H](CN3CCC4(CC3)CN(c3ncncc3Oc3ccc(F)cc3C(=O)N(C(C)C)C(C)C)C4)CC2)NC1=O [Example 18] the AUC(0-t) was 4040 ng·h/mL and the half-life was 80.4 min.

Same assay, conditions: male, ICR, mouse, plasma, po, 10 mg/kg, mice, p.o. 10 mg/kg; read-out: Cmax
Compound COCC1(COC)C[C@]2(CC[C@@H](CN3CCC4(CC3)CN(c3ncncc3Oc3ccc(F)cc3C(=O)N(C(C)C)C(C)C)C4)CC2)NC1=O [Example 18] has a Cmax of 1960 ng/mL.

Same assay, conditions: mice, p.o. 10 mg/kg; 1 mg/kg for intravenous injection
In the case of COCC1(COC)C[C@]2(CC[C@@H](CN3CCC4(CC3)CN(c3ncncc3Oc3ccc(F)cc3C(=O)N(C(C)C)C(C)C)C4)CC2)NC1=O [Example 18], the “F, %” value is reported as 75%.

Tested on: MOLM-13
Assay: Cell proliferation inhibition (CellTiter-Glo), MOLM-13
Format: cell-based
Conditions: Homo sapiens, MOLM-13, 168 h, MOLM-13 cells
Procedure: as §1, §2
CCN(C(=O)c1cc(F)ccc1Oc1nncnc1N1CC2(CCN(CC3CCC4(CC3)CN(C)C(=O)N4)CC2)C1)C(C)C (single isomer, unassigned) [Example 46-1] showed a GI50 of 329 nM. Work on CCN(C(=O)c1cc(F)ccc1Oc1nncnc1N1CC2(CCN(C[C@H]3CC[C@]4(CC3)CC(C(C)(C)O)C(=O)N4)CC2)C1)C(C)C (single isomer, unassigned) [Example 58-1a] yielded a GI50 of 54.4 nM. Compound COCC1(COC)C[C@]2(CC[C@@H](CN3CCC4(CC3)CN(c3ncncc3Oc3ccc(F)cc3C(=O)N(C(C)C)C(C)C)C4)CC2)NC1=O [Example 18] has a GI50 of 12.8 nM.

Tested on: not listed separately
Assay: Stability in dog liver microsomes
Format: in vitro ADME
Conditions: dog, liver microsomes, pH 7.4, Dog; 0.5 mg/mL microsomal protein, 1.00 μM compound, NADPH; read-out: Half life T1/2, dog liver microsomes
Procedure: as §3, §4, §5, §6, §7
In the case of CCN(C(=O)c1cc(F)ccc1Oc1nncnc1N1CC2(CCN(CC3CCC4(CC3)CN(C)C(=O)N4)CC2)C1)C(C)C (single isomer, unassigned) [Example 46-1], the half-life at 1 μM is reported as greater than 120 min. Work on CCN(C(=O)c1cc(F)ccc1Oc1nncnc1N1CC2(CCN(C[C@H]3CC[C@]4(CC3)CC(C(C)(C)O)C(=O)N4)CC2)C1)C(C)C (single isomer, unassigned) [Example 58-1a] yielded a half-life at 1 μM of 69.3 min.

Tested on: not listed separately
Assay: Stability in human liver microsomes
Format: in vitro ADME
Conditions: human, liver microsomes, pH 7.4, Human; 0.5 mg/mL microsomal protein, 1.00 μM compound, NADPH; read-out: Half life T1/2, human liver microsomes
Procedure: as §3, §4, §5, §6, §7
CCN(C(=O)c1cc(F)ccc1Oc1nncnc1N1CC2(CCN(CC3CCC4(CC3)CN(C)C(=O)N4)CC2)C1)C(C)C (single isomer, unassigned) [Example 46-1] gave a half-life at 1 μM of 78.5 min. CCN(C(=O)c1cc(F)ccc1Oc1nncnc1N1CC2(CCN(C[C@H]3CC[C@]4(CC3)CC(C(C)(C)O)C(=O)N4)CC2)C1)C(C)C (single isomer, unassigned) [Example 58-1a] gave a half-life at 1 μM of 23.7 min.

Target: Menin/MLL-4-43 peptide interaction (Homo sapiens (Human), UniProt O00255)
Sequence (O00255 whole entry, species assumed): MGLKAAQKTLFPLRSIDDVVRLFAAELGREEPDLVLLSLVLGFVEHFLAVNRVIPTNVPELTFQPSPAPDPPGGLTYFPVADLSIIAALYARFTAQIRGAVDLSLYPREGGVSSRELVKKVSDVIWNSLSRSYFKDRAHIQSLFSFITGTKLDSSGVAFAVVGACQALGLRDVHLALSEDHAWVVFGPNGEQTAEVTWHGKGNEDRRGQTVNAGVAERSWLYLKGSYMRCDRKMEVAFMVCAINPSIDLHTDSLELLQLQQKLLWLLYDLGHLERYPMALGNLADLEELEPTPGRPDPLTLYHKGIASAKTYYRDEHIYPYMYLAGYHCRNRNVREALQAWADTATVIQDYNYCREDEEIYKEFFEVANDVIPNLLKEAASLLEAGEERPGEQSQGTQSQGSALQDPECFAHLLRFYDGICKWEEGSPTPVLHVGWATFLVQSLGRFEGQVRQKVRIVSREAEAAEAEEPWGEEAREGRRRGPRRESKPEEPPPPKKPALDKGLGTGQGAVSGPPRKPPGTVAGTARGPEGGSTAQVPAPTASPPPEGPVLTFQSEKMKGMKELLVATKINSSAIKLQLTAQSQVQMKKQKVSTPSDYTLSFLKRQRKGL
Assay: Menin-MLL interaction inhibitory activity assay (fluorescence polarization competition)
Format: binding
Conditions: FITC-MLL4-43-peptide, Menin recombinant protein
Procedure: Test Example 1: Menin-MLL Interaction Inhibitory Activity Assay
The inhibition of Menin/MLL-4-43 peptide interaction by small molecule inhibitors was quantitatively detected by fluorescence polarization competition assay. The experiment was performed in a 384-well plate (Corning, Cat #3575) using a reaction buffer consisting of 50 mM Tris, pH 7.5, 50 mM NaCl, and 1 mM DTT. A 40 μL reaction system included 10 μL of 8 nM Menin recombinant protein and 10 μL of the test compound at different concentrations. The compound was pre-incubated with Menin protein for 15 min, and then 20 μL of 10 nM FITC-MLL4-43-peptide was added. After incubation on a shaker at 25° C. for 60 min, the fluorescence polarization signal (FP 485 520 520) was read using BMG PHERAStar detection. The experimental data was analyzed and processed by GraphPad Prism 6 software to obtain the IC50 value. The control compound 1 was prepared by referring to the method of Example 64 in WO2017214367.
CCN(C(=O)c1cc(F)ccc1Oc1nncnc1N1CC2(CCN(CC3CCC4(CC3)CN(C)C(=O)N4)CC2)C1)C(C)C (single isomer, unassigned) [Example 46-1] gave an IC50 of 35.3 nM. Work on CCN(C(=O)c1cc(F)ccc1Oc1nncnc1N1CC2(CCN(C[C@H]3CC[C@]4(CC3)CC(C(C)(C)O)C(=O)N4)CC2)C1)C(C)C (single isomer, unassigned) [Example 58-1a] yielded an IC50 of 5.4 nM. COCC1(COC)C[C@]2(CC[C@@H](CN3CCC4(CC3)CN(c3ncncc3Oc3ccc(F)cc3C(=O)N(C(C)C)C(C)C)C4)CC2)NC1=O [Example 18] showed an IC50 of 6.3 nM.

Tested on: MV4-11
Assay: Cell proliferation inhibition (CellTiter-Glo), MV4-11
Format: cell-based
Conditions: Homo sapiens, MV4-11, 72 h, MV4-11 cells
Procedure: as §1, §2
With CCN(C(=O)c1cc(F)ccc1Oc1nncnc1N1CC2(CCN(CC3CCC4(CC3)CN(C)C(=O)N4)CC2)C1)C(C)C (single isomer, unassigned) [Example 46-1] the GI50 was 100 nM. CCN(C(=O)c1cc(F)ccc1Oc1nncnc1N1CC2(CCN(C[C@H]3CC[C@]4(CC3)CC(C(C)(C)O)C(=O)N4)CC2)C1)C(C)C (single isomer, unassigned) [Example 58-1a] gave a GI50 of 17.7 nM. Work on COCC1(COC)C[C@]2(CC[C@@H](CN3CCC4(CC3)CN(c3ncncc3Oc3ccc(F)cc3C(=O)N(C(C)C)C(C)C)C4)CC2)NC1=O [Example 18] yielded a GI50 of 12.2 nM.

From patent US20250074910A1, “MENIN INHIBITOR AND USE THEREOF” (HITGEN INC., priority 2021, published 2025)
